Assay results taken from patent publication US20230365546A1, “5-SUBSTITUTED INDOLE 3-AMIDE DERIVATIVES, PREPARATION METHOD AND USE THEREOF” (ORIGIANT PHARMACEUTICAL CO., LTD, priority 2020, published 2023).

What was measured:
Experiment in all cases: Kinase Profiler 10 μM panel
Abl(m) = Abl(m) (Mus musculus (Mouse), UniProt P00520)
Description: (§1) In vitro kinase assays were conducted using Kinase Profiler services provided by Eurofins. The experimental method was as follows: the small molecule compound to be tested (0.001-10 μM), the protein kinase to be tested were incubated with a buffer containing substrate, 10 mM magnesium acetate, and [γ-^33P-ATP], the reaction was started by adding Mg\TPmix, after incubation for a period of time at room temperature, a 3% phosphate solution was added to the buffer to stop the reaction. Subsequently, 10 μL of the reaction mixture was quantitatively pipetted onto P30 filter paper, which was washed three times with 75 mM phosphate solution and then once with methanol. The P30 filter paper was air-dried and scintillation fluid was added for scintillation counting.

Fms(h) = Fms(h) (Homo sapiens (Human), UniProt P07333)
Description: as §1

Fyn(h) = Fyn(h) (Homo sapiens (Human), UniProt P06241)
Description: as §1

[1] = molecular target: PI3 Kinase (p110b/p85b)(m) (Mus musculus (Mouse), UniProt Q8BTI9)
Description: as §1

ALK1(h) = ALK1(h) (Homo sapiens (Human), UniProt P37023)
Description: as §1

ALK4(h) = ALK4(h) (Homo sapiens (Human), UniProt P36896)
Description: as §1

PI3 Kinase (p120g)(h) = PI3 Kinase (p120g)(h) (Homo sapiens (Human), UniProt P48736)
Description: as §1

AMPKα2(h) = AMPKα2(h) (Homo sapiens (Human), UniProt P54646)
Description: as §1

GSK3α(h) = GSK3α(h) (Homo sapiens (Human), UniProt P49840)
Description: as §1

GSK3β(h) = GSK3β(h) (Homo sapiens (Human), UniProt P49841)
Description: as §1

Hck(h) = Hck(h) (Homo sapiens (Human), UniProt P08631)
Description: as §1

HRI(h) = HRI(h) (Homo sapiens (Human), UniProt Q9BQI3)
Description: as §1

Blk(m) = Blk(m) (Mus musculus (Mouse), UniProt P16277)
Description: as §1

BMPR2(h) = BMPR2(h) (Homo sapiens (Human), UniProt Q13873)
Description: as §1

PKG1β(h) = PKG1β(h) (Homo sapiens (Human), UniProt Q13976)
Description: as §1

CaMKIIδ(h) = CaMKIIδ(h) (Homo sapiens (Human), UniProt Q13557)
Description: as §1

CaMKK1(h) = CaMKK1(h) (Homo sapiens (Human), UniProt Q8N5S9)
Description: as §1

MAP4K3(h) = MAP4K3(h) (Homo sapiens (Human), UniProt Q8IVH8)
Description: as §1

CDKL2(h) = CDKL2(h) (Homo sapiens (Human), UniProt Q92772)
Description: as §1

CDKL4(h) = CDKL4(h) (Homo sapiens (Human), UniProt Q5MAI5)
Description: as §1

CHK1(h) = CHK1(h) (Homo sapiens (Human), UniProt O14757)
Description: as §1

CHK2(h) = CHK2(h) (Homo sapiens (Human), UniProt O96017)
Description: as §1

SAPK3(h) = SAPK3(h) (Homo sapiens (Human), UniProt P53778)
Description: as §1

CK2α1(h) = CK2α1(h) (Homo sapiens (Human), UniProt P68400)
Description: as §1

cKit(h) = cKit(h) (Homo sapiens (Human), UniProt P10721)
Description: as §1

STK25(h) = STK25(h) (Homo sapiens (Human), UniProt O00506)
Description: as §1

STK32A(h) = STK32A(h) (Homo sapiens (Human), UniProt Q8WU08)
Description: as §1

TAF1L(h) = TAF1L(h) (Homo sapiens (Human), UniProt Q8IZX4)
Description: as §1

DAPK1(h) = DAPK1(h) (Homo sapiens (Human), UniProt P53355)
Description: as §1

Tie2 (h) = Tie2 (h) (Homo sapiens (Human), UniProt Q02763)
Description: as §1

NEK1(h) = NEK1(h) (Homo sapiens (Human), UniProt Q96PY6)
Description: as §1

PAK4(h) = PAK4(h) (Homo sapiens (Human), UniProt O96013)
Description: as §1

PDHK4(h) = PDHK4(h) (Homo sapiens (Human), UniProt Q16654)
Description: as §1

[2] = molecular target: PI3 Kinase (p110a(E542K)/p85a)(h) (Homo sapiens (Human), UniProt P42336, E542K)
Description: as §1

GSK3β(h), sequence (P49841 whole entry): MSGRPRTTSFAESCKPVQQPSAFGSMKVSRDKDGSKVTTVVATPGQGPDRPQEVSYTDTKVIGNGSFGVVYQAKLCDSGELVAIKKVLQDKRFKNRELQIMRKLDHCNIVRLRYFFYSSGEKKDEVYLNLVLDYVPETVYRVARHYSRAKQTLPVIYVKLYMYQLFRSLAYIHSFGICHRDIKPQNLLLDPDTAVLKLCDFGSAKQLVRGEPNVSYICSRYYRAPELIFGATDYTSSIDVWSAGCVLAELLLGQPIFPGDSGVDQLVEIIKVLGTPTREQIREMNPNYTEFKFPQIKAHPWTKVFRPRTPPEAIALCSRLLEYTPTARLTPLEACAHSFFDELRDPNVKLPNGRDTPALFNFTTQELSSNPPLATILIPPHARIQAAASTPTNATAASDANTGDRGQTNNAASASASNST
BMPR2(h), sequence (Q13873 27-1038): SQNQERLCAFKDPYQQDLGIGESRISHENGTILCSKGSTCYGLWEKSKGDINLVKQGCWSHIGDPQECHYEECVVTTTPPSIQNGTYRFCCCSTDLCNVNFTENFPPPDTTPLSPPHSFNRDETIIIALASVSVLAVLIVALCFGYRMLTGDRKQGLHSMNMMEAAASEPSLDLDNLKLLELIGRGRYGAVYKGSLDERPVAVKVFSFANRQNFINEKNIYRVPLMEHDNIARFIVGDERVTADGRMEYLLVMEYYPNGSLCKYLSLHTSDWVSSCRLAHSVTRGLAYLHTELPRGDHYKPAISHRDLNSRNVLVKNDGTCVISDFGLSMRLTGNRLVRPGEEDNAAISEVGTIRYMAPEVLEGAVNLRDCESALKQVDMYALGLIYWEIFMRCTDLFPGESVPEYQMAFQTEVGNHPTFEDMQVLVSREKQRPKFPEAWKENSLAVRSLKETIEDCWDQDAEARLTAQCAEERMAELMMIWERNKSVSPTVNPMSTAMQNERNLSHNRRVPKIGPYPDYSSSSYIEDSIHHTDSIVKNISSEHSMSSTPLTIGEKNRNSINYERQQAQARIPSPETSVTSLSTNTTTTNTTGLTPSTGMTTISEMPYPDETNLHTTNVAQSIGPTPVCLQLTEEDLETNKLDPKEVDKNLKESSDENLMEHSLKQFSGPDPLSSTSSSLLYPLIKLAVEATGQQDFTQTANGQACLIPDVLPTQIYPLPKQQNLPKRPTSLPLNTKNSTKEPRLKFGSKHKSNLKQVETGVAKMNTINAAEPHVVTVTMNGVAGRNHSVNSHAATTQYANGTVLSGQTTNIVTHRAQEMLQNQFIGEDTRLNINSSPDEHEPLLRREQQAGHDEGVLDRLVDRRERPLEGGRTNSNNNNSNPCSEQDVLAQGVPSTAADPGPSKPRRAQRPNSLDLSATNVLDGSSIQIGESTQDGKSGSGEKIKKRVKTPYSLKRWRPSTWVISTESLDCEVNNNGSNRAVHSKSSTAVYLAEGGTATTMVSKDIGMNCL
PAK4(h), sequence (O96013 whole entry): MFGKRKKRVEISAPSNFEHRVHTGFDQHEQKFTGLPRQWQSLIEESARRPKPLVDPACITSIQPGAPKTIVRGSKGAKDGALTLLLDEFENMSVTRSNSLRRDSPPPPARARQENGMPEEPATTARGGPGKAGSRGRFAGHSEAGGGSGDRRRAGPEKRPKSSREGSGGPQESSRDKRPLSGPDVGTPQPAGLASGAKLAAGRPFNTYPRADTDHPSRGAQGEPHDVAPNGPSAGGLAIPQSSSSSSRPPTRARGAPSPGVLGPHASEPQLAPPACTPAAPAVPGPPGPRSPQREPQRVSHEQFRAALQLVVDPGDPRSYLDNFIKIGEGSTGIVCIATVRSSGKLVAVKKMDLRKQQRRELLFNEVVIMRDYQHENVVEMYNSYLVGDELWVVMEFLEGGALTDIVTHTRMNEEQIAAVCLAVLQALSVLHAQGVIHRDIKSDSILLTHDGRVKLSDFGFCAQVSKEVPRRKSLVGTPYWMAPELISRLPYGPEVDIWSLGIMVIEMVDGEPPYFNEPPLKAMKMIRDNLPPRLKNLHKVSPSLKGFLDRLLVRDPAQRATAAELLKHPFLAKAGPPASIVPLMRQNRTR
AMPKα2(h), sequence (P54646 whole entry): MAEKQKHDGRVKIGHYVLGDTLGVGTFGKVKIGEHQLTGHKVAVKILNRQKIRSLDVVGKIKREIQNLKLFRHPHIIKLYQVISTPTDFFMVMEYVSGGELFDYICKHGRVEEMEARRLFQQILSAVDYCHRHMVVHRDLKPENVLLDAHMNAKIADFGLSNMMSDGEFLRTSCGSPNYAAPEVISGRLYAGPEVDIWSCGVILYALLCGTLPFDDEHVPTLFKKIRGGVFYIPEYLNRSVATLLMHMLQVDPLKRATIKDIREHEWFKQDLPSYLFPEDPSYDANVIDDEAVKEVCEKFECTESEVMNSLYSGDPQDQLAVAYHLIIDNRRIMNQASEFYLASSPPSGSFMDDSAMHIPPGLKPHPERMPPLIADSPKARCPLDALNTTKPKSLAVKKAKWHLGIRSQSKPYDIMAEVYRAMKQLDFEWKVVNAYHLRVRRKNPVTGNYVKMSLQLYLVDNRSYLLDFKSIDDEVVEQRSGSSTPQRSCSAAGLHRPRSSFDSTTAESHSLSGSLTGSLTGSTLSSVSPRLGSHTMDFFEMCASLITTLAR
AMPKα2(h), sequence (Q9Y478 whole entry partner): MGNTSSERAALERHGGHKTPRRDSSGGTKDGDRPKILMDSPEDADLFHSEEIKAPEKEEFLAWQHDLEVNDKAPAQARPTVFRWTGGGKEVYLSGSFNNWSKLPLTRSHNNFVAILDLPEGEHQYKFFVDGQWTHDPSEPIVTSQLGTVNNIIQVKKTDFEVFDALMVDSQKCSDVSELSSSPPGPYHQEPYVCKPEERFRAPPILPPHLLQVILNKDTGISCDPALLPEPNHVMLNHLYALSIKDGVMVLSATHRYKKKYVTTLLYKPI
AMPKα2(h), sequence (P54619 whole entry partner): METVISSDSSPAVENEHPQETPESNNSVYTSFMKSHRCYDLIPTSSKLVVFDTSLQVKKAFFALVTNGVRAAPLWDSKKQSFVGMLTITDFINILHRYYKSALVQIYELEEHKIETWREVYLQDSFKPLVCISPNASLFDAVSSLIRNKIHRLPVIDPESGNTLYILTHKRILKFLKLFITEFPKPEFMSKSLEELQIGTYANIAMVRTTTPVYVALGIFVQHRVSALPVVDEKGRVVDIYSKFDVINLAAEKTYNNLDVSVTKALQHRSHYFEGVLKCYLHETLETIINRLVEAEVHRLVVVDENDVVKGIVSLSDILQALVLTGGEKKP
NEK1(h), sequence (Q96PY6 whole entry): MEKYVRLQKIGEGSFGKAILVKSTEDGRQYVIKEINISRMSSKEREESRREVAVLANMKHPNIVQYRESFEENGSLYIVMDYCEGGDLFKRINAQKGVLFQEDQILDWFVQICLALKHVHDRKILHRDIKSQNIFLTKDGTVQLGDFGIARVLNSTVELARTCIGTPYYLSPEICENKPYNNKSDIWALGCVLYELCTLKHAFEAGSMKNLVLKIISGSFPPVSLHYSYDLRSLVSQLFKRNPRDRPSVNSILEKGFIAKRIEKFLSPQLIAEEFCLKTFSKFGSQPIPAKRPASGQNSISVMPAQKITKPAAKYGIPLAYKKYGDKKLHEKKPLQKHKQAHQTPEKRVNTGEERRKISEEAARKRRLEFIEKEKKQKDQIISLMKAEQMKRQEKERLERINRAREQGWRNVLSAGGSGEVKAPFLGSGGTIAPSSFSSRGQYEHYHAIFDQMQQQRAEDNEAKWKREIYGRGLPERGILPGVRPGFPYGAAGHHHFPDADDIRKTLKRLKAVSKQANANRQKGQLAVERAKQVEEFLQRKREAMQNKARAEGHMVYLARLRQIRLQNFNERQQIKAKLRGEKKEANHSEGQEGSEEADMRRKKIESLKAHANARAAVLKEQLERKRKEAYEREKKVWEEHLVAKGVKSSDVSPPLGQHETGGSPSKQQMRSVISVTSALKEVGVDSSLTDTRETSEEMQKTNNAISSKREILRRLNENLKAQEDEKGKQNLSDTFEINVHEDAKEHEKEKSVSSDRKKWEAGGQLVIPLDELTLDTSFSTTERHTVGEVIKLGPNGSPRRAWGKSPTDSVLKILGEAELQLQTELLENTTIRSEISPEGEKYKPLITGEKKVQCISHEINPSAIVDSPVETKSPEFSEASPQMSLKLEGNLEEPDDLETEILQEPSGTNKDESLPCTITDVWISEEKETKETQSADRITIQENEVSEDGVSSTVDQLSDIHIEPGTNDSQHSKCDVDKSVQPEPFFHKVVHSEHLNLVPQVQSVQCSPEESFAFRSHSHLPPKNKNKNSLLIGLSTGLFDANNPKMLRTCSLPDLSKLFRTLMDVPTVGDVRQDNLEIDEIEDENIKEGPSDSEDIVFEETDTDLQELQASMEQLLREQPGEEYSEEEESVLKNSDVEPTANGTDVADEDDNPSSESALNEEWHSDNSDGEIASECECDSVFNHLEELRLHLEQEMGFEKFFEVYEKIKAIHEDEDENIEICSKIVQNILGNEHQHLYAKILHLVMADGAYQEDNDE
CDKL4(h), sequence (Q5MAI5 whole entry): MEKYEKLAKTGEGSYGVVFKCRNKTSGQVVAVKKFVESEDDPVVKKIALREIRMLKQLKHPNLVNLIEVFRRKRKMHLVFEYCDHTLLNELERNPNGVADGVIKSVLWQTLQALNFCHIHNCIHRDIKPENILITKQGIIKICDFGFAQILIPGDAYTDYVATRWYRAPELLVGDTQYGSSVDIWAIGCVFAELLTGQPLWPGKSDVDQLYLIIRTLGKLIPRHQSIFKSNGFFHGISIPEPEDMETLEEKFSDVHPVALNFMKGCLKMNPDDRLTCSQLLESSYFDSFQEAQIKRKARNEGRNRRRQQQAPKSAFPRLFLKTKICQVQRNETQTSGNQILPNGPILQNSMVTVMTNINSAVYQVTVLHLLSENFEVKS

`C[C@H](NC(=O)c1c[nH]c2ccc(-c3ccc4nc(NC(=O)C5CC5)sc4c3)cc12)c1cccc(F)c1` [Compound 34, (S)-5-(2-(cyclopropanecarboxamido)benzo[d]thiazol-6-yl)-N-(1-(3-fluorophenyl)ethyl)-1H-indole-3-carboxamide] was tested, and the Inhibition ratio (Abl(m)) was 99%, the Inhibition ratio (Fms(h)) was 21% and the Inhibition ratio (Fyn(h)) was 43%. It also gave an Inhibition ratio [1] of 45%, an Inhibition ratio (ALK1(h)) of 50% and an Inhibition ratio (ALK4(h)) of 3%. The Inhibition ratio (PI3 Kinase (p120g)(h)) was 35%, the Inhibition ratio (AMPKα2(h)) was 13% and the Inhibition ratio (GSK3α(h)) was 10%. It also gave an Inhibition ratio (GSK3β(h)) of 13%, an Inhibition ratio (Hck(h)) of 37% and an Inhibition ratio (HRI(h)) of −3%. The Inhibition ratio (Blk(m)) was 65%, the Inhibition ratio (BMPR2(h)) was 30% and the Inhibition ratio (PKG1β(h)) was 7%. It also gave an Inhibition ratio (CaMKIIδ(h)) of 22%, an Inhibition ratio (CaMKK1(h)) of 74% and an Inhibition ratio (MAP4K3(h)) of 95%. The Inhibition ratio (CDKL2(h)) was 68%, the Inhibition ratio (CDKL4(h)) was 56% and the Inhibition ratio (CHK1(h)) was 2%. It also gave an Inhibition ratio (CHK2(h)) of 22%, an Inhibition ratio (SAPK3(h)) of 84% and an Inhibition ratio (CK2α1(h)) of 7%. The Inhibition ratio (cKit(h)) was 4%, the Inhibition ratio (STK25(h)) was 2% and the Inhibition ratio (STK32A(h)) was 16%. For the same compound, the Inhibition ratio (TAF1L(h)) was 58%, the Inhibition ratio (DAPK1(h)) was 12% and the Inhibition ratio (Tie2 (h)) was 96%. It also gave an Inhibition ratio (NEK1(h)) of 18%, an Inhibition ratio (PAK4(h)) of 10% and an Inhibition ratio (PDHK4(h)) of 72%. For the same compound, the Inhibition ratio [2] was 38%.

Compound `C[C@H](NC(=O)c1cn(C)c2ccc(-c3ccn4nc(NC(=O)C5CC5)nc4c3)cc12)c1cccc(F)c1` [Compound 94, (S)-5-(2-(cyclopropanecarboxamido)-[1,2,4]triazolo[1,5-a]pyridin-7-yl)-N-(1-(3-fluorophenyl)ethyl)-1-methyl-1H-indole-3-carboxamide] has an Inhibition ratio/% (Abl(m)) of 61%, an Inhibition ratio/% (Fms(h)) of 22% and an Inhibition ratio/% (Fyn(h)) of −43%. It also gave an Inhibition ratio/% [1] of 44%, an Inhibition ratio/% (ALK1(h)) of 0% and an Inhibition ratio/% (ALK4(h)) of −18%. The Inhibition ratio/% (PI3 Kinase (p120g)(h)) was −12%, the Inhibition ratio/% (AMPKα2(h)) was 16% and the Inhibition ratio/% (GSK3α(h)) was 48%. The Inhibition ratio/% (GSK3β(h)) was 1%, the Inhibition ratio/% (Hck(h)) was −8% and the Inhibition ratio/% (HRI(h)) was −4%. For the same compound, the Inhibition ratio/% (Blk(m)) was 77%, the Inhibition ratio/% (BMPR2(h)) was −6% and the Inhibition ratio/% (PKG1β(h)) was 0%. The Inhibition ratio/% (CaMKIIδ(h)) was −11%, the Inhibition ratio/% (CaMKK1(h)) was 35% and the Inhibition ratio/% (MAP4K3(h)) was 28%. It also gave an Inhibition ratio/% (CDKL2(h)) of 62%, an Inhibition ratio/% (CDKL4(h)) of 76% and an Inhibition ratio/% (CHK1(h)) of −2%. It also gave an Inhibition ratio/% (CHK2(h)) of 8%, an Inhibition ratio/% (SAPK3(h)) of 46% and an Inhibition ratio/% (CK2α1(h)) of 58%. It also gave an Inhibition ratio/% (cKit(h)) of 21%, an Inhibition ratio/% (STK25(h)) of 26% and an Inhibition ratio/% (STK32A(h)) of 55%. For the same compound, the Inhibition ratio/% (TAF1L(h)) was 48%, the Inhibition ratio/% (DAPK1(h)) was 40% and the Inhibition ratio/% (Tie2 (h)) was 30%. The Inhibition ratio/% (NEK1(h)) was 50%, the Inhibition ratio/% (PAK4(h)) was 5% and the Inhibition ratio/% (PDHK4(h)) was −18%. It also gave an Inhibition ratio/% [2] of −4%.
